# The source made the active and inactive calls.
# Legend:
# cells [1] = format: functional, cell-based; settings: HEK-CNG
# [2] = Luminescence Cell-Based Dose Confirmation HTS to Identify Inhibitors of Platelet Dense Granule Release. [Related pubchem assays: 1663 (Primary HTS), 1678 (Summary of Project)]; format: functional
# Galanin receptor type 3 = molecular target: T1, Galanin receptor type 3 (Homo sapiens, UniProt O60755); assay: Fluorescence-based cell-based primary high throughput dose response assay to identify antagonists of the Galanin Receptor 3 (GalR3).; format: functional
# T1 sequence (O60755 whole entry): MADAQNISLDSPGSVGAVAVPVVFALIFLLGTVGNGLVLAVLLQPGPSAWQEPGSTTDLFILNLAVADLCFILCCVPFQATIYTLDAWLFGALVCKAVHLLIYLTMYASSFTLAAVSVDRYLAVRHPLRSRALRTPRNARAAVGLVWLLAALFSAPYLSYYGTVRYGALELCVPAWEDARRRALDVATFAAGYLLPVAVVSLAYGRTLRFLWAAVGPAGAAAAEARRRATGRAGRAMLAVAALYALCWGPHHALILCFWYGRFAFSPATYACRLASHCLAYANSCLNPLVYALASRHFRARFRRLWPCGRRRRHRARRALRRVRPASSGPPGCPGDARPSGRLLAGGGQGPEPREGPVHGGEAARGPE
# [3] = molecular target: Luciferin 4-monooxygenase (Photinus pyralis, UniProt P08659); assay: firefly luciferase enzyme inhibitors, dose response, biochemical, luminescence (AID 1891)
# Sequence of Luciferin 4-monooxygenase (P08659 whole entry): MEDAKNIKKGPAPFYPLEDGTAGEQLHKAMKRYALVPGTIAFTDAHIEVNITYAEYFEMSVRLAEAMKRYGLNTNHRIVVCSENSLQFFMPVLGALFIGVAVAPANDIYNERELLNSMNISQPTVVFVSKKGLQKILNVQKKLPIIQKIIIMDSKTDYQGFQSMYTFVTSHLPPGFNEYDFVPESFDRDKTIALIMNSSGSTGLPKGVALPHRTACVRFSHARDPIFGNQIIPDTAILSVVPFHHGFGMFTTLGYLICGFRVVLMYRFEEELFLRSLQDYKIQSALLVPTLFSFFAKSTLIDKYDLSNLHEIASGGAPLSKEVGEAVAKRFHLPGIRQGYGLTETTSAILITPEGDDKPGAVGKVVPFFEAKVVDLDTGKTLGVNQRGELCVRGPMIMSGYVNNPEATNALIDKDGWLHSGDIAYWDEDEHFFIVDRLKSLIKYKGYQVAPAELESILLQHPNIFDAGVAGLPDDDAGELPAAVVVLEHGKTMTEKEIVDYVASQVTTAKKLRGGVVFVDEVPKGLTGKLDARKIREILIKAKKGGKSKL
# [4] = Luminescence Cell-Based Dose Response to Identify Activators of 5'UTR Stem-Loop Driven Prion Protein mRNA Translation in H4-C Neuroglioblastoma Cells. [Related pubchem assays: 1829 (Project Summary), 1814 (Primary HTS)]; format: functional
# [5] = Luminescence Cell-Based Dose Response to Identify Activators of Luciferase Translation or Activity in H4-C Neuroglioblastoma Cells. [Related pubchem assays: 1829 (Project Summary), 1814 (Primary HTS)]; format: functional
# [6] = Luminescence Cell-Based Dose Response HTS to Identify Activators of Luciferase Translation or Activity in H4 […] Cells. [Related pubchem assays: 1829 (Project Summary), 1814 (Primary HTS)]; format: functional
# [7] = Luminescence Cell-Based Dose Confirmation to Identify Activators of 5'UTR Stem-Loop Driven Alpha-Synuclein mRNA Translation in H4 Neuroglioblastoma Cells. [Related pubchem assays: 1829 (Project Summary), 1814 (Primary HTS)]; format: functional
# [8] = THP-1 cell cytotoxicity, dose response, cytotoxicity control for non-replicating M. tuberculosis project (AID 489025); format: functional
# Protein RecA = molecular target: T2, Protein RecA (Mycobacterium tuberculosis, UniProt P9WHJ3); assay: Fluorescence Cell-Free Homogeneous Dose Retest to Identify Inhibitors of RecA-Intein Splicing Activity. [Related pubchem assays (depositor defined):AID2097, AID2223, AID489010, AID492950]; format: functional
# T2 sequence (P9WHJ3 whole entry): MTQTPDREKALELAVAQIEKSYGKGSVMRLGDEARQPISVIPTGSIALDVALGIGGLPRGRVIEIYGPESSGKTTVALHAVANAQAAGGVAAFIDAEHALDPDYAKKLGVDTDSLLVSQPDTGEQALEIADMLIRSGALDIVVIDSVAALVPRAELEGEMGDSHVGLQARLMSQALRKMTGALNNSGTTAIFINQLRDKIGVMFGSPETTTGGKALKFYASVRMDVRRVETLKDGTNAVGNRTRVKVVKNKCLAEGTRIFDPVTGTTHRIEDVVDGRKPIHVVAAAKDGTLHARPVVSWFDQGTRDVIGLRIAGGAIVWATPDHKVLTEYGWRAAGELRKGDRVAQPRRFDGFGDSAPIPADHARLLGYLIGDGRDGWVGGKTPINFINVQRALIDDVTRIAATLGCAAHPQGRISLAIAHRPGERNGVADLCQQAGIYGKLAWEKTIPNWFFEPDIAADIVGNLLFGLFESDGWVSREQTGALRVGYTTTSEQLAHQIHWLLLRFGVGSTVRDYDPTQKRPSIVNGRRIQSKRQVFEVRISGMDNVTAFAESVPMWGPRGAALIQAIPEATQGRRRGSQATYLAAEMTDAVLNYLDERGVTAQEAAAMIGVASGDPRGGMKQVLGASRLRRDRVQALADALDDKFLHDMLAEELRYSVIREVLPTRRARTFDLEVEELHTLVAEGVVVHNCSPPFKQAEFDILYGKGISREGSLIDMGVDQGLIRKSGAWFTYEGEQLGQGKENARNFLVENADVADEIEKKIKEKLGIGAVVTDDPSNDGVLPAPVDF
# cells [9] = format: functional
# [10] = C. albicans growth with fluconazole, confirmation, fluorescence, retest (AID 2467); format: functional, cell-based
# [11] = cytotoxicity toward NIH3T3 fibroblasts, dose response, counter-screen, cell-based, ATP luminescence, mouse fibroblasts (AID 2010); format: functional;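 further: cells exposed to compound for about 90 hours before reading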
# [12] = NIH-3T3 fibroblast cytotoxicity, dose response, cytotoxicity control, cell-based, fluorescence, Alamar Blue, secondary assay (AID 2327); format: functional;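 further: NIH-3T3 mouse fibroblasts cultured with fluconazole at 8 µg/mL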
# [13] = HepG2 cell cytotoxicity, dose response, cytotoxicity control, plate reader, cherry-pick, antagonist series (AID 743416); format: functional, cell-based
# [14] = molecular target: T3, Heat shock factor protein 1 (Mus musculus, UniProt P38532); assay: HSF1 potentiators in luciferase reporter cells, confirmation, cell-based, NIH3T3, luminescence, dose retest (AID 435004); format: functional;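 further: stress induced by proteasome inhibitor MG132 added 30 min after compound; luciferase reporter driven by HSF1 response element in NIH3T3 cells; actives raise luminescence as potentiators of the MG132 stress response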
# T3 sequence (P38532 whole entry): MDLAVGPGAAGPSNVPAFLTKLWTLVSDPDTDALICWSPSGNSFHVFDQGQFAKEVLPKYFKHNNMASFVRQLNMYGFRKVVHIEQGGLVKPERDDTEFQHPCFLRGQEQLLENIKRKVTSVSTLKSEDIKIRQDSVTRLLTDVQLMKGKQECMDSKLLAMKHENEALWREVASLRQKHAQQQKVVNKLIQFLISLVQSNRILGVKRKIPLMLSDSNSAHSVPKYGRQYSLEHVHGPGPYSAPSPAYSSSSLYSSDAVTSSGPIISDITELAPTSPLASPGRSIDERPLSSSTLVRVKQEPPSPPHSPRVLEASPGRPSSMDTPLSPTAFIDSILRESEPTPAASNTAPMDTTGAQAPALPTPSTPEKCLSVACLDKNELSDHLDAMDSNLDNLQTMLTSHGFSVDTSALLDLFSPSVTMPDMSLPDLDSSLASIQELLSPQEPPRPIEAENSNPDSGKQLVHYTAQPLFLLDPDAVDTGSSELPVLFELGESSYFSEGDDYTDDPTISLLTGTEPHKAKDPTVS
# [15] = molecular target: T4, Replicative DNA helicase DnaB (Mycobacterium tuberculosis, UniProt P9WMR3); assay: DnaB intein splicing inhibitors, dose response, biochemical, cell-free fluorescence (AID 449749); format: functional
# T4 sequence (P9WMR3 whole entry): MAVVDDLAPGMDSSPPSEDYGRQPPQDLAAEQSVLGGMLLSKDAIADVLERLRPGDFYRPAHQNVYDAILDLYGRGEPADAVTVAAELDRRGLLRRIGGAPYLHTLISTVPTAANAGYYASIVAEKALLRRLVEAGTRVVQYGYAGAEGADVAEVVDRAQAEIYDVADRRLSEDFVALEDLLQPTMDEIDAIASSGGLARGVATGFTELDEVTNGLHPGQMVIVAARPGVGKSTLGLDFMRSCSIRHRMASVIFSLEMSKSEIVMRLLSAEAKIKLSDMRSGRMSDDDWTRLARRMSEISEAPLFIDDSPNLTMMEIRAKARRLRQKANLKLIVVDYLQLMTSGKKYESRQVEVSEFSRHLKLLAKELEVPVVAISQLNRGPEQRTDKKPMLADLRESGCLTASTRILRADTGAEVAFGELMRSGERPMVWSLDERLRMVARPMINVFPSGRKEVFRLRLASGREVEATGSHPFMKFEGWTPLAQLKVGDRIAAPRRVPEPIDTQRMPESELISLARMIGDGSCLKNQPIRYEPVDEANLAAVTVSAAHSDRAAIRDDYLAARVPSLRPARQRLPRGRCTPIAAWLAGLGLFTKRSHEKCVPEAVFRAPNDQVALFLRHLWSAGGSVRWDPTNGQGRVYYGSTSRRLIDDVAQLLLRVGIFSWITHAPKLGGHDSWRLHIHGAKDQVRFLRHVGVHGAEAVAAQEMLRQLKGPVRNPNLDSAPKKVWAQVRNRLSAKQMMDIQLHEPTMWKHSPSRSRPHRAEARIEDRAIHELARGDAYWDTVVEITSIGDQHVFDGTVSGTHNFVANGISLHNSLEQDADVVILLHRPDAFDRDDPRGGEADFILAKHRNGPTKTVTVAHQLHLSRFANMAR
# [16] = inhibitors of intracellular T. cruzi replication, confirmation, NIH3T3 host cells, beta-gal luminescence (AID 2044); format: functional, cell-based;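 further: intracellular parasites grown in NIH/3T3 mouse fibroblasts as host cells; luminescent beta-galactosidase reporter signal from transgenic T. cruzi replicating inside host cells; inhibitors lower the luminescence signal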
# [17] = HEK293 cell cytotoxicity, dose response, cytotoxicity control, plate reader, cherry-picked samples (AID 743446); format: functional, cell-based
# [18] = LGR2 antagonists, dose response, cell-based, HEK293, CRE-luciferase reporter, cherry pick, set 2 (AID 743343); format: functional;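 further: transfected cells were stimulated with diluted bursicon conditioned medium after compound addition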
# [19] = A549 cell cytotoxicity, dose response, cytotoxicity control, plate reader, cherry-pick, antagonist series (AID 743412); format: functional, cell-based
# [20] = MC4R antagonists, dose response, counter-screen for LGR2 antagonist project, cell-based, plate reader, cherry pick (AID 743444); format: functional;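 further: transfected HEK 293 cells stimulated with alpha-MSH peptide; potency of inhibitors of the alpha-MSH evoked signal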
# HEK293 = assay: inhibitors of LMP1-driven NF-kB reporter, dose response, cell-based, HEK293, luciferase, cherry-pick (AID 588343); format: functional; settings: Homo sapiens
# Paired box protein Pax-8 = Paired box protein Pax-8 (Homo sapiens, UniProt Q06710); assay: inhibitors of PAX8-driven TPO luciferase reporter, dose response, RMG-I cells, cherry-pick (AID 687027); format: functional, cell-based;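 further: luciferase reporter driven by Pax8 target thyroperoxidase promoter measured by SteadyGlo luminescence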
# Sequence of Paired box protein Pax-8 (Q06710 whole entry): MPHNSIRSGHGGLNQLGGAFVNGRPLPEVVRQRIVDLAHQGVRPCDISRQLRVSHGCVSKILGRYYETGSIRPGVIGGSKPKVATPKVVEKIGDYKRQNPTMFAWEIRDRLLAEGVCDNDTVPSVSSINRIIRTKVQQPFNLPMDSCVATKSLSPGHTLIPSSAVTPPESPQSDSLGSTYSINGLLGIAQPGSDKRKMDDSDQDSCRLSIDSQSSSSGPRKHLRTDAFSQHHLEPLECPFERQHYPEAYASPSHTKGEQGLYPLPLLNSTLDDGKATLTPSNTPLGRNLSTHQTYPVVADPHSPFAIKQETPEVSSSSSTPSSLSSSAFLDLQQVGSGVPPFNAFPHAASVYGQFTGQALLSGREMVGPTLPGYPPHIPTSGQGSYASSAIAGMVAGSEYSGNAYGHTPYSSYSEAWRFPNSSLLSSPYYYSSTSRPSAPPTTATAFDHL
# Major prion protein = Major prion protein (Homo sapiens, UniProt P04156); format: functional, cell-based
# [21] = inhibitors of PGC1a acetylation in cells, dose response, cell-based, cherry-picked samples (AID 720514); format: functional;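 further: potency may reflect raised or lowered acetylation signal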
smiles,measurement,setting,value
COc1ccc(C2CC(=O)Nc3sc(=N)c4c(N)c(C#N)c(N)nc4c32)cc1OC (configuration not stated),EC50,cells [1],> 29.9 µM (inactive)
same,EC50,[2],0.706 µM (active)
same,IC50,Galanin receptor type 3,2.28 µM (active)
same,EC50,[3],> 112 µM (not active)
COCCn1c(C)cc(C(=O)CSc2nc(O)c3ccccc3n2)c1C,EC50,[4],0.269 µM (active)
same,EC50,[5],0.326 µM (active)
same,EC50,[6],< 0.1 µM (active)
same,EC50,[7],0.371 µM (active)
Cc1noc2ncnc(Sc3ccc(Br)cc3)c12,CC50,[8],> 40 µM (active)
same,EC50,Protein RecA,16.2 µM (active)
same,IC50,cells [9],11.6 µM (active)
same,EC50,[10],> 38 µM (not active)
same,EC50,[11],> 60 µM (inconclusive)
same,EC50,[12],7.6 µM (inconclusive)
same,AC50,[13],25.4 µM (active)
same,EC50,[14],6.64 µM (active)
same,AC50,[15],4.02 µM (active)
same,EC50,[16],1.96 µM (active)
same,AC50,[17],> 52 µM (inactive)
COc1ccc(-c2csc3ncnc(Sc4nnnn4C)c23)cc1,AC50,[18],17.8 µM (active)
same,AC50,[17],19.8 µM (active)
same,AC50,[19],26.8 µM (active)
same,AC50,[20],20.8 µM (active)
same,AC50,HEK293,8.04 µM (active)
same,AC50,Paired box protein Pax-8,4.92 µM (active)
CC(Sc1ccc2ccccc2n1)C(=O)O (configuration not stated),IC50,Major prion protein,1.88 µM (active)
O=C1C2C3CCC(C3)C2C(=O)N1c1ccc(OS(=O)(=O)c2ccccc2)cc1 (configuration not stated),EC50,[4],0.408 µM (active)
same,EC50,[5],0.36 µM (active)
same,EC50,[6],< 0.1 µM (inconclusive)
same,EC50,[7],0.366 µM (active)
Cc1cc2c(c(/C=C/C(=O)c3ccccc3)c1)OC1(C=C2)Oc2ccccc2C(=O)N1C (configuration not stated),EC50,[14],3.56 µM (active)
same,AC50,[21],2.26 µM (active)

# Source: ChEMBL document CHEMBL1201862, “PubChem BioAssay data set” (2004)
